# Laboratory results reported in patent US10376558B2, “Method and compositions for synchronizing time of insemination in gilts” (UNITED-AH II, LLC, priority 2012, dated 2019).
# How the values were obtained:
# Format in all cases: in vivo, swine
# gilts [1] = experiment: Example 1: estrus detection after triptorelin gel at 96, 120 or 144 h after last MATRIX feeding; conditions: raw average, PTK 1-07 (rep 3); 200 mcg T at 120 h after MATRIX withdrawal
# Procedure: All gilts were individually fed MATRIX® as a top-dress for 14 days at the recommended rate of 15 mg/gilt/day. Gilts were withdrawn from MATRIX® feeding (last top feed in the morning on Day 0) and allotted to treatments. Controls were treated with a 1.2% methylcellulose gel formulation without triptorelin at 96 hours following MATRIX® withdrawal (last top-dress). The remaining gilts received 200 mcg triptorelin, as the acetate, in a 1.2% methylcellulose gel formulation intravaginally at various times after MATRIX® withdrawal. The four treatments were: 1) vehicle gel (VG) treatment at 96 hours after MATRIX® withdrawal, 2) triptorelin gel (TG) treatment at 96 hours after MATRIX® withdrawal, 3) TG treatment at 120 hours after MATRIX® withdrawal and 4) TG treatment at 144 hours after MATRIX® withdrawal. All gilts were monitored for their estrous and ovulatory status as described below. Gilts included in replicate 1 were selected from terminal line commercial production gilts located in grow/finish barns. Sexual maturity, as indicated by one or more estrous periods, was not verified prior to the start of MATRIX® feeding. Gilts included in replicate 2 were selected from a maternal line gilt population. Sexual maturity was verified by at least one estrous period verified and recorded prior to starting MATRIX® feeding. […]
# Data were analyzed using the Mixed Models procedures of SAS. […]
# gilts [2] = experiment: Example 1: ovulation monitoring by transrectal ultrasonography after triptorelin gel at 96, 120 or 144 h after last MATRIX feeding; conditions: raw average, PTK 1-07 (rep 3); for % of Sows Ovulating: 200 mcg T at 120 h
# Procedure: All gilts were individually fed MATRIX® as a top-dress for 14 days at the recommended rate of 15 mg/gilt/day. Gilts were withdrawn from MATRIX® feeding (last top feed in the morning on Day 0) and allotted to treatments. Controls were treated with a 1.2% methylcellulose gel formulation without triptorelin at 96 hours following MATRIX® withdrawal (last top-dress). The remaining gilts received 200 mcg triptorelin, as the acetate, in a 1.2% methylcellulose gel formulation intravaginally at various times after MATRIX® withdrawal. The four treatments were: 1) vehicle gel (VG) treatment at 96 hours after MATRIX® withdrawal, 2) triptorelin gel (TG) treatment at 96 hours after MATRIX® withdrawal, 3) TG treatment at 120 hours after MATRIX® withdrawal and 4) TG treatment at 144 hours after MATRIX® withdrawal. All gilts were monitored for their estrous and ovulatory status as described below. Gilts included in replicate 1 were selected from terminal line commercial production gilts located in grow/finish barns. Sexual maturity, as indicated by one or more estrous periods, was not verified prior to the start of MATRIX® feeding. Gilts included in replicate 2 were selected from a maternal line gilt population. Sexual maturity was verified by at least one estrous period verified and recorded prior to starting MATRIX® feeding.
# The ovulatory status of all gilts was monitored by transrectal ultrasonography. For replicate one, ovulation was monitored two times on Day 5, then three times a day from Day 6 to Day 8. For replicate two, ovulation was monitored three times a day from Day 5 to Day 8. An Aloka 500 ultrasound machine with a 7.5 MHz linear array transducer attached to a fixed-angle PVC stabilizing rod to facilitate insertion into the rectum was used for this purpose. The transducer and PVC rod were coated with a gynecological lubricant and gently inserted into the rectum until the ovaries were visualized, one at a time. The diameters of the three largest follicles were recorded (to the nearest 0.1 mm) at each scanning. A gilt was declared to have ovulated when the number of large follicles (≥6.5 mm) fell to less than 3.
# (§1) A single 2 mL dose of triptorelin gel or vehicle gel was deposited within approximately 1-2 cm posterior to the cervix with a catheter similar to those used for artificial insemination. The dose was delivered using a standard multi-dose applicator attached to the catheter. A new disposable sheath, which surrounds the catheter, was used for each gilt.
# Data were analyzed using the Mixed Models procedures of SAS. Models included main effects of time of treatment following the last feeding of MATRIX®, replicate, and treatment by replicate interaction. Differences between treatments were tested on least squares means estimates using the T test at P<0.05. Data for analysis were tested for assumptions of data normality.
# gilts [3] = experiment: Example 5: ovulation monitoring by transrectal ultrasonography after 100, 200 or 400 mcg triptorelin gel at 120 h post-MATRIX; conditions: for Percentage ovulated by 48 hours: after treatment; for Time at which ovulation detected: relative to time of triptorelin gel treatment, Least Squares Mean ± SE; for % of Sows Ovulating / Interval from MATRIX Withdrawal to Ovulation: raw average, PTK 2-07
# Procedure: All gilts were individually fed MATRIX® as a top-dress for 14 or 15 days at the recommended rate of 15 mg/gilt/day. Gilts were withdrawn from MATRIX® feeding (last top-dress in the morning on Day 0) and allocated to each of the following treatments. Controls were vehicle gel treated (vehicle gel without triptorelin) at 120 (+/−2) hours following MATRIX® withdrawal (last top dress). The other gilts were given 100, 200 or 400 mcg triptorelin as the acetate in a methylcellulose gel formulation 120 (+/−2) hours following MATRIX® withdrawal. The four treatments were:
# 2. TG 100: 100 mcg (2 mL 50 mcg/mL) triptorelin gel at 120 (+/−2) hours after MATRIX® withdrawal.
# 3. TG 200: 200 mcg (2 mL 100 mcg/mL) triptorelin gel at 120 (+/−2) hours after MATRIX® withdrawal.
# 4. TG 400: 400 mcg (2 mL 200 mcg/mL) triptorelin gel at 120 (+/−2) hours after MATRIX® withdrawal.
# Ovulation was monitored twice on Day 5 (8 hours and 16 hours post-treatment) and every 8 hours on Day 6 and Day 7 or until ovulation was confirmed or 176 hours following last MATRIX® feeding. The ovulatory status of all gilts was monitored by transrectal ultrasonography. An Aloka 500 ultrasound machine is used for this purpose, with a 7.5 MHz linear array transducer attached to a fixed-angle PVC stabilizing rod to facilitate insertion into the rectum. The transducer and PVC rod are coated with a gynecological lubricant and gently inserted into the rectum until the ovaries can be visualized, one at a time. The diameters of the three largest follicles were recorded (to the nearest 0.1 mm) at each scanning. A gilt was declared to have ovulated when the number of large follicles (≥6.5 mm) fell to less than 3.
# as §1
# [4] = 200 mcg T at 120 h after MATRIX withdrawal
# [5] = 100 mcg T (n = 6 catheterized gilts)
# [6] = 200 mcg T (n = 7 catheterized gilts)
smiles,measurement,setting,value
"CC(C)C[C@H](NC(=O)[C@@H](Cc1c[nH]c2ccccc12)NC(=O)[C@H](Cc1ccc(O)cc1)NC(=O)[C@H](CO)NC(=O)[C@H](Cc1c[nH]c2ccccc12)NC(=O)[C@H](Cc1c[nH]cn1)NC(=O)[C@@H]1CCC(=O)N1)C(=O)N[C@@H](CCCNC(=N)N)C(=O)N1CCC[C@H]1C(=O)NCC(N)=O [T, pGlu-His-Trp-Ser-Tyr-D-Trp-Leu-Arg-Pro-Gly-NH2]",Estrous Expression (%),gilts [1],100.0%
same,Interval from MATRIX withdrawal to Estrus,gilts [1],129.6 h
same,% of Sows Ovulating,"gilts [2]; 128 h post-MATRIX, 8 h post-T",0.0%
same,% of Sows Ovulating,"gilts [2]; 136 h post-MATRIX, 16 h post-T",10.0%
same,% of Sows Ovulating,"gilts [2]; 144 h post-MATRIX, 24 h post-T",30.0%
same,% of Sows Ovulating,"gilts [2]; 152 h post-MATRIX, 32 h post-T",70.0%
same,% of Sows Ovulating,"gilts [2]; 160 h post-MATRIX, 40 h post-T",80.0%
same,% of Sows Ovulating,"gilts [2]; 168 h post-MATRIX, 48 h post-T",90.0%
same,% of Sows Ovulating,"gilts [2]; 176 h post-MATRIX, 56 h post-T",100.0%
same,Interval from MATRIX Withdrawal to Ovulation,gilts [2]; [4],153.6
same,Percentage ovulated by 48 hours,gilts [3]; [5],100%
same,Time at which ovulation detected,gilts [3]; [5],40 ± 10 h
same,Percentage ovulated by 48 hours,gilts [3]; [6],100%
same,Time at which ovulation detected,gilts [3]; [6],34 ± 9 h
same,% of Sows Ovulating,"gilts [3]; 100 mcg T at 120 h, 128 h post-MATRIX, 8 h post-T",0.0%
same,% of Sows Ovulating,"gilts [3]; 100 mcg T at 120 h, 136 h post-MATRIX, 16 h post-T",5.0%
same,% of Sows Ovulating,"gilts [3]; 100 mcg T at 120 h, 144 h post-MATRIX, 24 h post-T",20.0%
same,% of Sows Ovulating,"gilts [3]; 100 mcg T at 120 h, 152 h post-MATRIX, 32 h post-T",30.0%
same,% of Sows Ovulating,"gilts [3]; 100 mcg T at 120 h, 160 h post-MATRIX, 40 h post-T",60.0%
same,% of Sows Ovulating,"gilts [3]; 100 mcg T at 120 h, 168 h post-MATRIX, 48 h post-T",95.0%
same,% of Sows Ovulating,"gilts [3]; 100 mcg T at 120 h, 176 h post-MATRIX, 56 h post-T",100.0%
same,Interval from MATRIX Withdrawal to Ovulation,gilts [3]; 100 mcg T at 120 h after MATRIX withdrawal,159.2
same,% of Sows Ovulating,"gilts [3]; 200 mcg T at 120 h, 128 h post-MATRIX, 8 h post-T",0.0%
same,% of Sows Ovulating,"gilts [3]; 200 mcg T at 120 h, 136 h post-MATRIX, 16 h post-T",0.0%
same,% of Sows Ovulating,"gilts [3]; 200 mcg T at 120 h, 144 h post-MATRIX, 24 h post-T",23.8%
same,% of Sows Ovulating,"gilts [3]; 200 mcg T at 120 h, 152 h post-MATRIX, 32 h post-T",33.3%
same,% of Sows Ovulating,"gilts [3]; 200 mcg T at 120 h, 160 h post-MATRIX, 40 h post-T",52.4%
same,% of Sows Ovulating,"gilts [3]; 200 mcg T at 120 h, 168 h post-MATRIX, 48 h post-T",95.2%
same,% of Sows Ovulating,"gilts [3]; 200 mcg T at 120 h, 176 h post-MATRIX, 56 h post-T",95.2%
same,Interval from MATRIX Withdrawal to Ovulation,gilts [3]; [4],158.8
same,% of Sows Ovulating,"gilts [3]; 400 mcg T at 120 h, 128 h post-MATRIX, 8 h post-T",4.5%
same,% of Sows Ovulating,"gilts [3]; 400 mcg T at 120 h, 136 h post-MATRIX, 16 h post-T",9.1%
same,% of Sows Ovulating,"gilts [3]; 400 mcg T at 120 h, 144 h post-MATRIX, 24 h post-T",22.7%
same,% of Sows Ovulating,"gilts [3]; 400 mcg T at 120 h, 152 h post-MATRIX, 32 h post-T",36.4%
same,% of Sows Ovulating,"gilts [3]; 400 mcg T at 120 h, 160 h post-MATRIX, 40 h post-T",63.6%
same,% of Sows Ovulating,"gilts [3]; 400 mcg T at 120 h, 168 h post-MATRIX, 48 h post-T",100.0%
same,% of Sows Ovulating,"gilts [3]; 400 mcg T at 120 h, 176 h post-MATRIX, 56 h post-T",100.0%
same,Interval from MATRIX Withdrawal to Ovulation,gilts [3]; 400 mcg T at 120 h after MATRIX withdrawal,157.1
